The values that follow come from US20240226292A1, “METHODS AND COMPOSITIONS FOR TARGETING OF ANTIGENS AND OTHER POLYPEPTIDES TO FIRST RESPONDER DENDRITIC CELLS” (THE UNIVERSITY OF CHICAGO, priority 2021, published 2024).

The target in experiment [1] is DAP12 (Homo sapiens, UniProt O43914). To be noted: cited from earlier work.
Experiment [2] concerns the target T1, PRG2 (Homo sapiens, UniProt P13727).
T1 sequence (P13727 106-222): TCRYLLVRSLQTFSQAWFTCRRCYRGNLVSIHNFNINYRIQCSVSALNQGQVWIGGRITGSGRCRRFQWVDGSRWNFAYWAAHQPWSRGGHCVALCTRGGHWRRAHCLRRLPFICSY
To be noted: cited from earlier work.

Experiment [3] can be described thus: Liposomes loaded with cell cycle blocking agents and FLA before OVA/CpG vaccination. It is filed as in vivo, mice. Conditions: liposomes i.p. day 1, 100 ug OVA/10 ug CpG day 2. How it is done: FIGS. 42A-42D. […] Liposomes were loaded with two agents to block cell cycle (Cytoclastin D, CytoD, which blocks cells in G1 phase and Nocodozole, Noco, which blocks cells in G2 phase) as well as flagellin(FLA) as an TLR agonist. Mice were injected with 200 uL of 10 mM total lipid liposomes containing either (1) PBS only, Blank (2) FLA, 1 ug total per injection (3) FLA and 100 ug CytoD or (4) FLA+20 ug Noco. Mice were injected i.p with liposomes on day 1, then injected with 100 ug OVA/10 ug CpG (free formulation) on day 2 also i.p. Sera was collected via cheek bleed 1 hr after OVA/CpG injection. Mice were then sac'd on day 10 to observe anti-OVA Ig. Serum levels 1 h after injection for (FIG. 42A) IL-4, (FIG. 42B) MCP-1 and (FIG. 42C) TNF-a. (FIG. 42D) Total anti-OVA Ig on […]. N=5 mice per group.
(§1) Additional characterization and targeting of first responder dendritic cells (FRs) was performed.

Experiment [4] concerns FRs. In words: CD206 targeting peptide liposomes, FR targeting in BMDCs and splenocytes. It counts as cell-based, mouse. Conditions: lipid-peptide in 200 nm liposomes at 1% total lipid, in combination with heparin or GFLSKSLVF
As for the experimental part:
FIGS. 48A-48B. FR targeting peptides. A peptide targeting CD206 as described in a study by Ghebremedhin et al (Ghebremedhin A, Salam AB, Adu-Addai B, et al. Preprint. bioRxiv. 2020;2020.07.27.218115; incorporated herein by reference), having sequence RWKFGGFKWR (SEQ ID NO:2), was synthesized using the same lipid-peptide display technique as shown previously and incorporated into 200 nm liposomes at 1% total lipid. (FIG. 48A) 200K BMDCs were incubated with liposomes at either 1 or 10 uM total lipid concentration for 15 mins, then incubated with MP-TLR4 (200K) for 15 mins, washed and stained. The liposomal RFU is plotted for various formulations. MMR=CD206 targeting lipid at 1% total lipid, DAP12=DAP12 targeting lipid at 1% total lipid, Hep=heparin-lipid conjugate at 10% total lipid. (FIG. 48B) similar to part A, but using 2 million splenocytes and gating on all CD11c+ cells.
as §1

For experiment [5], the system named is BMDCs. The experiment can be described thus: Nocodazole treated BMDCs, MP uptake and % FRs by imagestream. Conditions: 10 nM Nocodazole for 20 hrs prior to MP treatment, versus NT. It is filed as cell-based, mouse. As for the experimental part:
FIGS. 39A-39E. FRs are more likely actively dividing. (FIG. 39A) 1 million BMDCs were incubated with 1 million MP-TLR4 for 15 mins, washed and stain with Hoest for nuclear stain (0.1 ug/mL) and anti-CD11c antibody. […] (FIG. 39B) Graph of imagestream data from FIG. 39A from an N=3 showing that most BMDC FRs are in G2 phase. (FIG. 39C) 1 million BMDCs were similarly treated as in FIG. 39A, except some samples were treated with 10 nM Nocodazole for 20 hrs prior to MP-TLR4 treatment. NT=non-treated, Noco=Nocodazole treated. (FIG. 39D) Similar to FIG. 39C, BMDCs were treated with MP-TLR7 or Blank MPs (1:1 particles/cells) for 15 mins, then tested via imagestream. Total MP uptake per 100 k BMDCs were calculated for either NT or Noco treated samples. […] N=3, Error bars indicate +/−SD.

DAP12, sequence (O43914 22-113, species assumed): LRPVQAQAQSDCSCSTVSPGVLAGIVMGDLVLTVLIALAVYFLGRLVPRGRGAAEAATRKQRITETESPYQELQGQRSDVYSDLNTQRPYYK

As for GFLSKSLVF, the “binding to DAP12” value in experiment [1] is on record as “selectively binding”. heparin: the “affinity to PRG2” value in experiment [2] is recorded as “moderate affinity”. For `C=C1[C@@H](C)[C@H]2[C@H](Cc3ccccc3)NC(=O)[C@]23[C@H](OC(C)=O)/C=C/[C@@](C)(O)C(=O)[C@@H](C)C/C=C/[C@H]3[C@@H]1O` [Cytoclastin D], the vaccine response result in experiment [3] is on record as “increases vaccine response”. With “RWKFGGFKWR [peptide targeting CD206 as described by Ghebremedhin et al]”, the “identification and targeting of FRs” value in experiment [4] is “can identify and target FRs”. As for `COC(=O)Nc1nc2cc(C(=O)c3cccs3)ccc2[nH]1` [Noco, Nocodazole], the “total % of FRs” value in experiment [5] is reported as “increases in FR population”.
